Data from patent US20250074871A1, “PHENETHYLAMINES AND METHODS OF PREPARATION THEREOF” (priority 2022, published 2025).

Legend:
Type in all cases: cell-based
5-HT2A receptor = biological target: T1, 5-HT2A receptor (Homo sapiens, UniProt P28223); experiment: 5-HT2A Gq dissociation BRET functional assay
T1 construct: expressed in transfected cells; host or cells: HEK293T

5-HT1F = biological target: T2, 5-HT1F (Homo sapiens, UniProt P30939); experiment: 5-HT receptor activity panel (Table 3); conditions: Table 3
T2 sequence (P30939 1-366): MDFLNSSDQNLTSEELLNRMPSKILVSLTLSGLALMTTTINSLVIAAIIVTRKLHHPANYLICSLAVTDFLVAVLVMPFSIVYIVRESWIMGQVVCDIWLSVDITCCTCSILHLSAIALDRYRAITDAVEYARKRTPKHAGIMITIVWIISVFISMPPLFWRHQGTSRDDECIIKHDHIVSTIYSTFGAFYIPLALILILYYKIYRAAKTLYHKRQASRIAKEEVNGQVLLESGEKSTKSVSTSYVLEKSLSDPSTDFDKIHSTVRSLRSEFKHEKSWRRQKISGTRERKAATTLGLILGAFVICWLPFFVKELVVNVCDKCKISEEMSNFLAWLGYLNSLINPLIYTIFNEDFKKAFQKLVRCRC

5-HT1B = 5-HT1B (Homo sapiens, UniProt P28222); experiment: 5-HT receptor activity panel (Table 3)
5-HT1B, sequence (P28222 whole entry, species assumed): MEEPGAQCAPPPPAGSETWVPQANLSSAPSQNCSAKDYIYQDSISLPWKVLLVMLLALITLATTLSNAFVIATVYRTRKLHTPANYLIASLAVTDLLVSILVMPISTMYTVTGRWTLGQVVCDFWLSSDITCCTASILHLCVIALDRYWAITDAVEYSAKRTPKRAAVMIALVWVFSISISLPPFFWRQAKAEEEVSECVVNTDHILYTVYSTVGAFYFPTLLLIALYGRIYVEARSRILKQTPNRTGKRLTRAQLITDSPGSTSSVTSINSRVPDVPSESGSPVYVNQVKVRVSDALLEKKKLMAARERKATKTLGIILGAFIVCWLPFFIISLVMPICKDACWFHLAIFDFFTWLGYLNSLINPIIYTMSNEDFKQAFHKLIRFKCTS

5-HT7 = 5-HT7 (Homo sapiens, UniProt P34969); experiment: 5-HT receptor activity panel (Table 3)
5-HT7, sequence (P34969 whole entry, species assumed): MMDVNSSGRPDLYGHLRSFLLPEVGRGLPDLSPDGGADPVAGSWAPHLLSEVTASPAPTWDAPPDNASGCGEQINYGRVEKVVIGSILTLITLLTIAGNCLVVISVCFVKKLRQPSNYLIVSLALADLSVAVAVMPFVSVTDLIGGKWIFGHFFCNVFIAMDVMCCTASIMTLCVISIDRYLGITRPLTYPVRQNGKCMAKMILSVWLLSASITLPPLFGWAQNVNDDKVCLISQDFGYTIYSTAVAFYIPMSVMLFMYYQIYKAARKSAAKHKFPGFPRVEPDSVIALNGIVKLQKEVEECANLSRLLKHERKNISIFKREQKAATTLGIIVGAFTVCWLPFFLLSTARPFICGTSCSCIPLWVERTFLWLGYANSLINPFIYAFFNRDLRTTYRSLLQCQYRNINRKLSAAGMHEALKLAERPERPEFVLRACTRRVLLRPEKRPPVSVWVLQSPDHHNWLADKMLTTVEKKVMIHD

5-HT5A = 5-HT5A (Homo sapiens, UniProt P47898); experiment: 5-HT receptor activity panel (Table 3)
5-HT5A, sequence (P47898 whole entry, species assumed): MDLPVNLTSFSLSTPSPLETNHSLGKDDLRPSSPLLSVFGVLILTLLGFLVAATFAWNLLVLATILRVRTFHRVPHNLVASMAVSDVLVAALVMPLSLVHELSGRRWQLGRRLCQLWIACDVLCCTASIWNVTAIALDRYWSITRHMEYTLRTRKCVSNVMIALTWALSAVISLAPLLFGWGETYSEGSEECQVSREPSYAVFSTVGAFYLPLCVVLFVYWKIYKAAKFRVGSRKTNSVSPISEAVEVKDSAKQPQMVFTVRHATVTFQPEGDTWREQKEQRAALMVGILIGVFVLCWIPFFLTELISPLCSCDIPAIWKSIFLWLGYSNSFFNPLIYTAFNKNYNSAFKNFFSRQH

5-HT6 = 5-HT6 (Homo sapiens, UniProt P50406); experiment: 5-HT receptor activity panel (Table 3); conditions: Table 3
5-HT6, sequence (P50406 whole entry, species assumed): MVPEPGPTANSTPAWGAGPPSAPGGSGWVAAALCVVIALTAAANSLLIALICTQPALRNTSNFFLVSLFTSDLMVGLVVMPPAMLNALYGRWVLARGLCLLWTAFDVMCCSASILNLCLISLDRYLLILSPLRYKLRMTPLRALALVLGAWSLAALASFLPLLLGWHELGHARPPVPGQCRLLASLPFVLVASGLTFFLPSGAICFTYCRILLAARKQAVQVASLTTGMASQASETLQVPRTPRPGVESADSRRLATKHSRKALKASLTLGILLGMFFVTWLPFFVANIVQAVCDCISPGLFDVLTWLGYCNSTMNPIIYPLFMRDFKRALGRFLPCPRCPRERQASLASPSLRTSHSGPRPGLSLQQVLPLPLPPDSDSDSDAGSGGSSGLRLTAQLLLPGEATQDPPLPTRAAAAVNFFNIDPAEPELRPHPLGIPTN

5-HT1D = 5-HT1D (Homo sapiens, UniProt P28221); experiment: 5-HT receptor activity panel (Table 3)
5-HT1D, sequence (P28221 whole entry, species assumed): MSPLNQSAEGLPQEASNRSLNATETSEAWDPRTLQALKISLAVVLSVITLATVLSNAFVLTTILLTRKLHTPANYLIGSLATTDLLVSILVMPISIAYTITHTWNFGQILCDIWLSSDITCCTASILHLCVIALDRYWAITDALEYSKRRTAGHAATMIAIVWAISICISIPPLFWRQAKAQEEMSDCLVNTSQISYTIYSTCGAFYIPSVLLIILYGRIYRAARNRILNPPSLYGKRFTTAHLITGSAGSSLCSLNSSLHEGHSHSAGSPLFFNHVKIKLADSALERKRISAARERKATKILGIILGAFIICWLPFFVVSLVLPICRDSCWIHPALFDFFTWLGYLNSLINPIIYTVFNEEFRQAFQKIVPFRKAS

5-HT4 = 5-HT4 (Homo sapiens, UniProt Q13639); experiment: 5-HT receptor activity panel (Table 3)
5-HT4, sequence (Q13639 whole entry, species assumed): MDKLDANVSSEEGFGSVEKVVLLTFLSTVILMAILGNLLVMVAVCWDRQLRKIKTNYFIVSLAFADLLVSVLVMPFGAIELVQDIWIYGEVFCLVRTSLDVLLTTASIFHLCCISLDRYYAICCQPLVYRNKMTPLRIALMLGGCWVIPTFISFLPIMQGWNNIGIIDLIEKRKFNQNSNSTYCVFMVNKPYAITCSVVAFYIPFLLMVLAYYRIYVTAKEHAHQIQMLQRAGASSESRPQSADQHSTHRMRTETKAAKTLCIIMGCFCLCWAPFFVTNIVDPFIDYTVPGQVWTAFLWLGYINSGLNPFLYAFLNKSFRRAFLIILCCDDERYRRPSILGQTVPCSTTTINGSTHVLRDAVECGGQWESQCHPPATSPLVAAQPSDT

5-HT2B receptor = biological target: T3, 5-HT2B receptor (Homo sapiens, UniProt P41595); experiment: 5-HT2B Gq dissociation BRET functional assay
T3 construct: expressed in transfected cells; host or cells: HEK293T
T3 sequence (P41595 whole entry): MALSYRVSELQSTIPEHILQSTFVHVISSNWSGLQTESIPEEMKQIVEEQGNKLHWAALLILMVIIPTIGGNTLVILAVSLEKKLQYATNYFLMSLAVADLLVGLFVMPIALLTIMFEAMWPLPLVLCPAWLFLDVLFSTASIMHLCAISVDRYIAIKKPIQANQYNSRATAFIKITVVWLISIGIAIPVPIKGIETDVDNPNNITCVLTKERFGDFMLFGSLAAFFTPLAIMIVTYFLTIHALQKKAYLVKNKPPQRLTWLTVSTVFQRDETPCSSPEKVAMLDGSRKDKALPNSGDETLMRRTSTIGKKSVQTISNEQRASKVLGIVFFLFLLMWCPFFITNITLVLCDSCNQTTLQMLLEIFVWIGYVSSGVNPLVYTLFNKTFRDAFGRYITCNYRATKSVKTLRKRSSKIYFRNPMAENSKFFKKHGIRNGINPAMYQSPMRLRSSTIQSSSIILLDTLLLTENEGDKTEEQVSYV

5-HT1A = biological target: T4, 5-HT1A (Homo sapiens, UniProt P08908); experiment: 5-HT receptor activity panel (Table 3)
T4 sequence (P08908 1-422): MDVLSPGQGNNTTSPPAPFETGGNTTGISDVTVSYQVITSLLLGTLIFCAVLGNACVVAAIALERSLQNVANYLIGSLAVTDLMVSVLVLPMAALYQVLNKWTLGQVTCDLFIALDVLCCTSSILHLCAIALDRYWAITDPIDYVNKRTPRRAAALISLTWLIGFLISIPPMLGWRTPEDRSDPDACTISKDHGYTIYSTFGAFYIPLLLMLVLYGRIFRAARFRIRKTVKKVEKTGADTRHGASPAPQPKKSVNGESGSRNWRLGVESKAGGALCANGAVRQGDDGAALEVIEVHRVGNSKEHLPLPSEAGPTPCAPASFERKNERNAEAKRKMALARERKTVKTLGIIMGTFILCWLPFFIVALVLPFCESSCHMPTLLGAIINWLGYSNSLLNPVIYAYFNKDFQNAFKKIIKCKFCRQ

5-HT1E = 5-HT1E (Homo sapiens, UniProt P28566); experiment: 5-HT receptor activity panel (Table 3)
5-HT1E, sequence (P28566 whole entry, species assumed): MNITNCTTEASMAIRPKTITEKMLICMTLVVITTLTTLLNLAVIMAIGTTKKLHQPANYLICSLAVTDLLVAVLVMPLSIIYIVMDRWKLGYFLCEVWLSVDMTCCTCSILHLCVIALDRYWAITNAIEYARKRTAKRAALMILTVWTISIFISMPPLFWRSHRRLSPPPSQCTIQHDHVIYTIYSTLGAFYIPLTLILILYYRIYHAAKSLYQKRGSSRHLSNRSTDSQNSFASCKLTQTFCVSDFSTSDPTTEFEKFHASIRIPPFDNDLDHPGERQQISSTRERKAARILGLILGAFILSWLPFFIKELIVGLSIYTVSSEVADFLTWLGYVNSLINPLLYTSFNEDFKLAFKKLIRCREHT

[1] = Table 2, normalized to % 5-HT stimulation

T1 sequence (P28223 whole entry): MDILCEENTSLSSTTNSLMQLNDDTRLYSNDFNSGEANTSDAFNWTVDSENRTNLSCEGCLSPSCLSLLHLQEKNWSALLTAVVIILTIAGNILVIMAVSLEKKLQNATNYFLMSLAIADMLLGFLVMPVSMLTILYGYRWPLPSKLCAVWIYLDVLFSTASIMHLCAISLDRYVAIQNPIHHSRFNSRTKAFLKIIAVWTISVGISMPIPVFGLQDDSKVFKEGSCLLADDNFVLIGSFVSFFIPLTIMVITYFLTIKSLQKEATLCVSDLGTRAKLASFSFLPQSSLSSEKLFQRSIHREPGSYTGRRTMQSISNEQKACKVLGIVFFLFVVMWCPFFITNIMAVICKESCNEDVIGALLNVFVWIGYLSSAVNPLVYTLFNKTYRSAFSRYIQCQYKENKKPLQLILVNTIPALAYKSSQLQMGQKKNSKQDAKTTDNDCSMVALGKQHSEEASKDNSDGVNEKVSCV

CN(C)CCc1c[nH]c2cccc(O)c12 [psilocin, reference compound]
5-HT2A BRET Eff % (5-HT2A receptor; [1]): 82% | 5-HT2A Eff, % (5-HT2A receptor; Table 3 panel): 80% | 5-HT1F Eff, % (5-HT1F): 93% | EC50 (5-HT1B): 14.3 nM | 5-HT1B Eff, % (5-HT1B; Table 3): 94% | EC50 (5-HT7): 525 nM | 5-HT7 Eff, % (5-HT7; Table 3): 86% | EC50 (5-HT5A): 349 nM | 5-HT5A Eff, % (5-HT5A; Table 3): 48% | 5-HT6 Eff, % (5-HT6): 74% | EC50 (5-HT6; read-out: 5-HT6 EC50): 182 nM | EC50 (5-HT1D): 2.2 nM | 5-HT1D Eff, % (5-HT1D; Table 3): 102% | EC50 (5-HT4): 563 nM | 5-HT4 Eff, % (5-HT4; Table 3): 81% | 5-HT2B BRET Eff % (5-HT2B receptor; [1]): 63% | 5-HT2B Eff, % (5-HT2B receptor; Table 3 panel): 32% | EC50 (5-HT1A): 46.9 nM | 5-HT1A Eff, % (5-HT1A; Table 3): 93% | EC50 (5-HT1E): 10.4 nM | 5-HT1E Eff, % (5-HT1E; Table 3): 90%
